Data reported in PMC11570312, “Development, optimization, and characterization of polymeric micelles to improve dasatinib oral bioavailability: Hep G2 cell cytotoxicity and in vivo pharmacokinetics for targeted liver cancer therapy” (Heliyon, 2024).

Tests used:
[1] = In vitro release of dasatinib (dialysis bag); format: physicochemical; conditions: 12 h, pH 7.4, 37 °C
Procedure: To imitate the journey of polymeric micelles through the gastrointestinal tract, an in vitro drug release test was conducted. To simulate drug release from polymeric micelles, a release test was conducted using a phosphate buffer solution at pH 7.4 over 12 h, starting at the 0.5-h mark. The pH of human blood and most bodily tissues is roughly 7.4. Performing the release research at this pH allows us to forecast how dasatinib will behave once taken into the bloodstream and dispersed throughout the body. […] This information aids in evaluating how much of the drug can reach the systemic circulation for therapeutic activity. Each test was performed in a medium containing 0.5 % w/v Tween 20 to maintain sink conditions. A dialysis bag containing 1 mL of a freshly prepared dispersion of dasatinib-loaded micelles was sealed with clips and placed into a glass container filled with 90 mL of […]. This setup was incubated in a water bath set at 37 °C with agitation at 150 rotations per minute. At specified time intervals ([…]), 5 mL samples of the release medium were withdrawn and replaced with fresh medium to maintain volume consistency. The amount of drug released was measured by analyzing the UV absorbance of the samples at 323 nm. A standard curve for […] in each medium was used for the quantification. […]

[2] = MTT/SRB cytotoxicity assay; format: cell-based; conditions: human, HepG2 cells; HepG2, after 48 h
Procedure: The MTT assay was performed to assess the cytotoxicity of the samples on the HepG2 cell line. Approximately 8000 cells per well were cultured in a 96-well plate for 24 h at 37 °C with 5 % CO2 in DMEM medium supplemented with 10 % FBS and 1 % antibiotic solution. The following day, cells were exposed to various dosages and concentrations ranging from 1 to 2500 μM, prepared using incomplete medium to achieve the desired concentrations. After a 24-h incubation period, 100 μL of 10 % trichloroacetic acid (TCA) was added to each well and incubated for 1 h. Then, the plate was washed with distilled water and allowed to dry at room temperature. MTT solution was added to each well at a final concentration of 0.04 % and was allowed to sit for 1 h. After an hour of incubation, the plate was air-dried at room temperature before being cleaned with 1 % (v/v) acetic acid to remove any remaining color. To solubilize the protein-bound dye, Tris base solution (pH = 10.5) was added to a well and shaken for 10 min on an orbital shaker. The protein-bound dye was then detected at 510 nm using an ELISA plate reader (iMark, Biorad, USA).
The cytotoxicity of the samples was evaluated using the HepG2 cell line, obtained from NCCS Pune, through the MTT assay. […] The results were measured at 540 nm and 660 nm using a Bio-Rad ELISA plate reader (USA). The IC50 value was calculated using GraphPad Prism 9 software. […]

HepG2 cells [3] = experiment: Cell cycle analysis with flow cytometry; format: cell-based, human; conditions: HepG2, 24 h at IC50
Procedure: Specimens were placed on cells and incubated for 24 h. The cells that were not subjected to any treatment were the control cells. After the set incubation duration, trypsin was applied to detach the cells. Subsequently, the cells were gathered in a 1.5-mL vial and rinsed with 500 μL of chilled PBS [39]. A suspension of approximately 10^6 cells was prepared by gently vortexing 100 μL of PBS, resulting in a monodispersed cell suspension with minimal aggregation. The cells were then fixed by adding this solution to centrifuge tubes containing 900 μL of 70 % ethanol on ice, followed by incubation at 4 °C for at least 2 h. Cells can be stored in 70 % ethanol at 4 °C for several weeks. According to Sun et al. after centrifugation post-fixation, the cell pellet was resuspended in 500 μL of Propidium Iodide (PI) staining solution (0.1 % (v/v) Triton X-100, 10 μg/mL PI, and 100 μg/mL DNase-free RNaseA in PBS). The mixture was incubated in the dark for 30 min at room temperature or 10 min at 37 °C. Finally, samples were analyzed using a flow cytometer.

HepG2 cell lines = experiment: Cellular apoptosis with flow cytometry (Annexin V-FITC/PI); format: cell-based, human; conditions: HepG2, IC50 dose
Procedure: HepG2 cell lines, obtained from NCCS Pune, were cultured and treated with the compound's IC-50 dosage. Post-treatment, the cells were divided into five groups: unstained cells, control group, annexin-only, PI-only, and treatment. The cells were then resuspended in 1X binding buffer at a concentration of 1 × 10^6 cells/mL. FITC and PI from Annexin V were added to the appropriately labeled tubes. According to Zhan et al., 1X binding buffer was added to each tube, and they were incubated for 15 min at room temperature. The samples were analyzed using a BD FACS Lyric™ flow cytometer within an hour.

HepG2 cells [4] = experiment: ROS estimation with flow cytometry (DCFDA); format: cell-based, human; conditions: HepG2, 24 h, Control 1 %
Procedure: Cells were seeded into six-well plates at densities ranging from 5000 to 10,000 HepG2 cells per well, using 1 mL of DMEM media supplemented with 10 % FBS and 1 % antibiotic solution. The plates were then incubated at 37 °C with 5 % CO2 for 24 h. Prior to treatment, the old culture medium was replaced with fresh medium, designating untreated cells as controls. Following the protocol by Gupta et al. cells were treated with various agents and further incubated for 24 h. After incubation, the medium was removed, and cells were detached using trypsin-EDTA, transferred to 1.5 mL tubes, and washed with 500 μl of cold PBS. The cell pellet was resuspended in 100 μl of PBS containing 2 μM DCFDA, and samples were incubated for 1 h before analysis using a BD FACS Calibur flow cytometer (USA). Data were processed using version 2.5.1 of the Flowing software program.

HepG2 liver cell lines = experiment: In-vitro scratch assay; format: cell-based, human; conditions: HepG2, after 48 h of treatment
Text: The aim of the in-vitro scratch test is to assess how effectively cancer cell growth is curbed.

HepG2 cells [5] = experiment: Cellular uptake (fluorescence microscopy, flow cytometry); format: cell-based, human; conditions: HepG2, 50 and 100 μg/mL DAS, 1 and 4 h
Procedure: The cellular uptake of DAS polymeric micelles was evaluated by examining the uptake of DAS by HepG2, hepatocellular carcinoma, and murine melanoma cells after exposure to free DAS and DAS-PMs micelles. Cells were visualized under a fluorescence microscope, and the DAS fluorescence intensity in treated cells was measured using flow cytometry. Fluorescent micrographs depicted HepG2 cells that had been treated with free DAS and DAS-PMs for durations of 0, 1, and 4 h. […] This rise was in comparison to the control group. However, DAS-PMs may quickly accumulate in HepG2 cells, as indicated by the vivid green fluorescence—even just 1 h after. When cells were treated with DAS-PMs for 4 h, the fluorescence intensity increased much more than after 1 h. At the 1- and 4-h time points, the fluorescence intensity in cells treated with 100 μg/mL of DAS in DAS-PMs was considerably higher than that in cells treated with 50 μg/mL of DAS. The dose- and time-dependent rise in fluorescence intensity was quantitatively evaluated using flow cytometry on HepG2 cell lines, as illustrated in Fig. 12.

In vivo pharmacokinetics = experiment: In vivo pharmacokinetics; parameters: species or system Male Wistar rats; conditions: male, Wistar; for Cmax / Tmax: rat plasma
Procedure: Male Wistar rats, each weighing 200 ± 10 g, were obtained from the Experimental Animal Centre at NMIMS University. The study was conducted in accordance with the guidelines approved by the NMIMS University Animal Experimental Ethics Committee (protocol number SPTM/09/2023/IAEC/05). […] The total dose of DAS in two group was 5 mg/kg via intravenous. Blood samples (0.4 mL) were collected from the rats via intravenous injection at specified time intervals (0.5, 1, 2, 3, 4, 5, 6, 8, 10, and 12 h) and were immediately transferred into heparinized tubes. The samples were centrifuged at 12,000 rpm for 10 min to separate the plasma, which was then stored at −20 °C until analysis. The plasma samples were subsequently subjected to high-performance liquid chromatography (HPLC) to determine the concentration of dasatinib. The blood extraction process was conducted as follows: Initially, 15 μL of an internal standard solution (methanol, 10 μg/mL) was added to each tube containing 0.4 mL of blood, followed by vortexing for 1 min. Subsequently, 1 mL of acetonitrile was added, and the mixture was vortexed for an additional minute. The samples were then centrifuged at 12,000 rpm for 10 min. After centrifugation, the organic layer was carefully transferred to a sterile tube and evaporated under a gentle nitrogen stream. The dried extracts were reconstituted in 0.4 mL of a methanol/water solution (70/30, v/v) before undergoing high-performance liquid chromatography (HPLC) analysis. The pharmacokinetic parameters were calculated using the DAS 2.1.1 software (Shanghai, China).

[6] = plasma, rat, 5 mg/kg via intravenous

## Cc1nc(Nc2ncc(C(=O)Nc3c(C)cccc3Cl)s2)cc(N2CCN(CCO)CC2)n1 [DAS, dasatinib]
[1]
  drug released: 40%
[2]
  viability at 48 h: 12.2 ± 0.63%
HepG2 cells [3]; control 18.14 %
  percentage of cells in G2 phase: 11.94%
HepG2 cells [3]; control 20.04 %
  percentage of cells in S phase: 14.22%
HepG2 cells [3]; control 58.18 %
  percentage of cells in G1 phase: 67.14%
HepG2 cell lines; control 3.38 %
  early apoptotic cells: 0.6%
HepG2 cell lines; control 13.28 %
  necrotic cells: 18.1%
HepG2 cell lines; control 19.56 %
  late apoptotic cells: 72.4%
HepG2 cells [4]
  ROS, MFI-positive cells: 3.09%
HepG2 liver cell lines
  cell migration (scratch wound): curbed cell migration
HepG2 cells [5]
  fluorescence intensity (cellular uptake): slight rise in fluorescence intensity
In vivo pharmacokinetics; intravenous, 5 mg/kg
  Cmax: 12330 ± 60 ng/mL
  Tmax: 2 h
In vivo pharmacokinetics; [6]
  MRT: 3.3 h
  half-life: 4.08 ± 0.786 h
In vivo pharmacokinetics; 5 mg/kg via intravenous
  Cmax: 12300 ± 2310 ng/mL
  Tmax: 2 h
